Patent US12371454B2, “Cyclic peptide compound having Kras inhibitory action” (priority 2019, dated 2025)
Starred links: 1 amine or outer side, 2 acyl side, 3 side chain; linkers in the order of their positions; H or OH if unused. Positions of bridges follow the written chain, without caps; N, C: chain ends. Non-standard residues stand in square brackets, D forms with d. Residues, ends and D or L forms follow the SMILES beside them. *: point of attachment. hPhe(3-Cl-4-CF3) = N[C@@H](CCc1ccc(C(F)(F)F)c(Cl)c1)C(=O)O; hPhe(3-F,4-CF3) = N[C@@H](CCc1ccc(C(F)(F)F)c(F)c1)C(=O)O; NEtAsp = CCN([C@@H](CC(=O)[*:3])C(=O)[*:2])[*:1]; Pro(cis-4-Ph) = O=C(O)[C@@H]1C[C@H](c2ccccc2)CN1; NMedβ3hAla = C[C@H](CC(=O)[*:2])N(C)[*:1]; NMeGly(cPent) = CN[C@H](C(=O)O)C1CCCC1; NMeGly(cBu) = CN[C@H](C(=O)O)C1CCC1; NMeCha = CN[C@@H](CC1CCCCC1)C(=O)O; NMeGly(cPr) = CN[C@H](C(=O)O)C1CC1; Hyp = O=C(O)[C@@H]1C[C@@H](O)CN1; NMeChg = CN[C@H](C(=O)O)C1CCCCC1; NMeI = CC[C@H](C)[C@H](NC)C(=O)O; NMeD = CN[C@@H](CC(=O)O)C(=O)O; NMeL = CN[C@@H](CC(C)C)C(=O)O; NMehSer = CN[C@@H](CCO)C(=O)O; NMeNle = CCCC[C@H](NC)C(=O)O; NMeV = CN[C@H](C(=O)O)C(C)C; d(β3hA) = C[C@@H](N)CC(=O)O; NMeA = CN[C@@H](C)C(=O)O; Piperidide = C1CCN(*)CC1; Ac5c = NC1(C(=O)O)CCCC1; Aze = O=C(O)[C@@H]1CCN1; Meb = Cc1ccc(C*)cc1; Ethyl(2-OH) = OCC*; Sar = CNCC(=O)O

What follows are compounds tested on Human pancreatic cancer cell line AsPC-1 (assay: Measurement of AsPC-1 cell growth inhibition (AsPC-1 CGI)). Details: 96 h.
Format: cell-based
In short: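 AsPC-1 cells in 15% FBS RPMI-1640 were exposed to test compound for 96 hours at 37° C, with CellTiter-Glo as endpoint.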

Compound | IC50 [nM]
CC[C@H](C)[C@@H]1NC(=O)[C@H](C2CCCCC2)N(C)C(=O)C[C@@H](C(=O)N2CCCCC2)N(C)C(=O)[C@H](C(C)C)N(C)C(=O)C2(CCCC2)NC(=O)[C@@H]2CCCN2C(=O)[C@H](CCc2ccc(C(F)(F)F)c(Cl)c2)NC(=O)CN(C)C(=O)[C@H](CC2CCCCC2)N(C)C(=O)[C@@H]2CCN2C(=O)[C@H](C)N(C)C1=O [Compound 58] ([NMeChg]I[NMeA][Aze][NMeCha][Sar][hPhe(3-Cl-4-CF3)]P[Ac5c][NMeV][NMeD]-Piperidide; lactam N-11) | 100 to 500
CC[C@H](C)[C@@H]1NC(=O)[C@H](CC(C)C)N(C)C(=O)C[C@@H](C)N(C)C(=O)[C@H]([C@@H](C)CC)N(C)C(=O)C2(CCCC2)NC(=O)[C@@H]2CCCN2C(=O)[C@H](CCc2ccc(C(F)(F)F)c(F)c2)NC(=O)CN(C)C(=O)[C@H](C2CCCC2)N(C)C(=O)[C@@H]2CCN2C(=O)[C@H](C)N(C)C1=O [Compound 909] (cyclo([Ac5c][NMeI][NMedβ3hAla][NMeL]I[NMeA][Aze][NMeGly(cPent)][Sar][hPhe(3-F,4-CF3)]P)) | 50 to 100
CC[C@H](C)[C@@H]1NC(=O)[C@H](CC(C)C)N(C)C(=O)C[C@@H](C(=O)N2CCCCC2)N(C)C(=O)[C@H](C(C)C)N(C)C(=O)C2(CCCC2)NC(=O)[C@@H]2CCCN2C(=O)[C@H](CCc2ccc(C(F)(F)F)c(Cl)c2)NC(=O)CN(C)C(=O)[C@H](CC2CCCCC2)N(C)C(=O)[C@@H]2CCN2C(=O)[C@H](C)N(C)C1=O [Compound 476] ([NMeL]I[NMeA][Aze][NMeCha][Sar][hPhe(3-Cl-4-CF3)]P[Ac5c][NMeV][NMeD]-Piperidide; lactam N-11) | 100 to 500
CC[C@H](C)[C@@H]1NC(=O)[C@H](CC(C)C)N(C)C(=O)C[C@@H](C(=O)N2CCCCC2)N(C)C(=O)[C@H](CC(C)C)N(C)C(=O)C2(CCCC2)NC(=O)[C@@H]2C[C@@H](OCc3ccc(C)cc3)CN2C(=O)[C@H](CCc2ccc(C(F)(F)F)c(F)c2)NC(=O)CN(C)C(=O)[C@H](CC2CCCCC2)N(C)C(=O)CN(C)C(=O)CN(C)C1=O [Compound 2130] ([NMeL]I[Sar][Sar][NMeCha][Sar][hPhe(3-F,4-CF3)][Hyp](Meb)[Ac5c][NMeL][NMeD]-Piperidide; lactam N-11) | > 500
CC[C@H](C)[C@@H]1NC(=O)[C@H](CC(C)C)N(C)C(=O)C[C@@H](C(=O)N2CCCCC2)N(CC)C(=O)[C@H](C2CCCC2)N(C)C(=O)C2(CCCC2)NC(=O)[C@@H]2CCCN2C(=O)[C@H](CCc2ccc(C(F)(F)F)c(Cl)c2)NC(=O)CN(C)C(=O)[C@H](C2CCC2)N(C)C(=O)[C@@H]2CCN2C(=O)[C@H](C)N(C)C1=O [Compound 1047] ([NMeL]I[NMeA][Aze][NMeGly(cBu)][Sar][hPhe(3-Cl-4-CF3)]P[Ac5c][NMeGly(cPent)][NEtAsp]-Piperidide; lactam N-11) | 50 to 100
CCCC[C@H]1C(=O)N2CC[C@H]2C(=O)N(C)[C@@H](CC2CCCCC2)C(=O)N(C)CC(=O)N[C@@H](CCc2ccc(C(F)(F)F)c(Cl)c2)C(=O)N2CCC[C@H]2C(=O)NC2(CCCC2)C(=O)N(C)[C@@H](C(C)C)C(=O)N(C)[C@H](C(=O)N2CCCCC2)CC(=O)N(C)[C@@H](CC(C)C)C(=O)N[C@@H]([C@@H](C)CC)C(=O)N1C [Compound 1596] ([NMeL]I[NMeNle][Aze][NMeCha][Sar][hPhe(3-Cl-4-CF3)]P[Ac5c][NMeV][NMeD]-Piperidide; lactam N-11) | 100 to 500
CC[C@H](C)[C@@H]1NC(=O)[C@H](CC(C)C)N(C)C(=O)C[C@@H](C(=O)N2CCCCC2)N(C)C(=O)[C@H]([C@@H](C)CC)N(C)C(=O)C2(CCCC2)NC(=O)[C@@H]2CCCN2C(=O)[C@H](CCc2ccc(C(F)(F)F)c(Cl)c2)NC(=O)CN(C)C(=O)[C@H](CC2CCCCC2)N(C)C(=O)[C@@H]2CCN2C(=O)[C@H](C)N(C)C1=O [Compound 1722] ([NMeL]I[NMeA][Aze][NMeCha][Sar][hPhe(3-Cl-4-CF3)]P[Ac5c][NMeI][NMeD]-Piperidide; lactam N-11) | 20 to 50
CC[C@H](C)[C@@H]1NC(=O)[C@H](CC(C)C)N(C)C(=O)C[C@@H](C(=O)N2CCCCC2)N(C)C(=O)[C@H](C2CCCCC2)N(C)C(=O)C2(CCCC2)NC(=O)[C@@H]2C[C@@H](OCCO)CN2C(=O)[C@H](CCc2ccc(C(F)(F)F)c(Cl)c2)NC(=O)CN(C)C(=O)[C@H](CC2CCCCC2)N(C)C(=O)CN(C)C(=O)CN(C)C1=O [Compound 2122, (3S,9S,18S,21S,25S,28S,34S,36R)-3-[2-[3-chloro-4-(trifluoromethyl)phenyl]ethyl]-28-cyclohexyl-9-(cyclohexylmethyl)-36-(2-hydroxyethoxy)-21-isobutyl-7,10,13,16,22,26,29-heptamethyl-18-[(1S)-1-methylpropyl]-25-(piperidine-1-carbonyl)spiro[1,4,7,10,13,16,19,22,26,29,32-undecazabicyclo[32.3.0]heptatriacontane-31,1′-cyclopentane]-2,5,8,11,14,17,20,23,27,30,33-undecone] ([NMeL]I[Sar][Sar][NMeCha][Sar][hPhe(3-Cl-4-CF3)][Hyp](Ethyl(2-OH))[Ac5c][NMeChg][NMeD]-Piperidide; lactam N-11) | 50 to 100
CC[C@H](C)[C@@H]1NC(=O)[C@H](C2CC2)N(C)C(=O)C[C@@H](C(=O)N2CCCCC2)N(C)C(=O)[C@H](C(C)C)N(C)C(=O)C2(CCCC2)NC(=O)[C@@H]2CCCN2C(=O)[C@H](CCc2ccc(C(F)(F)F)c(Cl)c2)NC(=O)CN(C)C(=O)[C@H](CC2CCCCC2)N(C)C(=O)[C@@H]2CCN2C(=O)[C@H](C)N(C)C1=O [Compound 100] ([NMeGly(cPr)]I[NMeA][Aze][NMeCha][Sar][hPhe(3-Cl-4-CF3)]P[Ac5c][NMeV][NMeD]-Piperidide; lactam N-11) | 100 to 500
CC[C@H](C)[C@@H]1NC(=O)[C@H](CC(C)C)N(C)C(=O)C[C@@H](C(=O)N2CCCCC2)N(C)C(=O)[C@H](C2CCCCC2)N(C)C(=O)C2(CCCC2)NC(=O)[C@@H]2C[C@H](c3ccccc3)CN2C(=O)[C@H](CCc2ccc(C(F)(F)F)c(Cl)c2)NC(=O)CN(C)C(=O)[C@H](CC2CCCCC2)N(C)C(=O)CN(C)C(=O)CN(C)C1=O [Compound 428] ([NMeL]I[Sar][Sar][NMeCha][Sar][hPhe(3-Cl-4-CF3)][Pro(cis-4-Ph)][Ac5c][NMeChg][NMeD]-Piperidide; lactam N-11) | 100 to 500
CC[C@H](C)[C@@H]1NC(=O)[C@H](CCOC)N(C)C(=O)C[C@@H](C(=O)N2CCCCC2)N(C)C(=O)[C@H](C(C)C)N(C)C(=O)C2(CCCC2)NC(=O)[C@@H]2CCCN2C(=O)[C@H](CCc2ccc(C(F)(F)F)c(Cl)c2)NC(=O)CN(C)C(=O)[C@H](CC2CCCCC2)N(C)C(=O)[C@@H]2CCN2C(=O)[C@H](C)N(C)C1=O [Compound 397] ([NMehSer](Me)I[NMeA][Aze][NMeCha][Sar][hPhe(3-Cl-4-CF3)]P[Ac5c][NMeV][NMeD]-Piperidide; lactam N-11) | 100 to 500
CC[C@H](C)[C@@H]1NC(=O)[C@H](CC(C)C)N(C)C(=O)C[C@@H](C)NC(=O)[C@H](C2CCCC2)N(C)C(=O)C2(CCCC2)NC(=O)[C@@H]2CCCN2C(=O)[C@H](CCc2ccc(C(F)(F)F)c(Cl)c2)NC(=O)CN(C)C(=O)[C@H](CC2CCCCC2)N(C)C(=O)[C@@H]2CCN2C(=O)CN(C)C1=O [Compound 1499] (cyclo([Ac5c][NMeGly(cPent)][d(β3hA)][NMeL]I[Sar][Aze][NMeCha][Sar][hPhe(3-Cl-4-CF3)]P)) | 100 to 500
